# Laboratory results: US7332521B2, “Substituted indoles” (Wyeth, priority 2003, dated 2008)
# Tests used:
# [1] = molecular target: T1, recombinant human plasminogen activator inhibitor-1 (PAI-1) (Homo sapiens, UniProt P05121); assay: Primary screen for the PAI-1 inhibition (chromogenic tPA activity); assay type: biochemical; settings: pH 6.6 buffer; for inhibition at 10 µM: 10 μM test compound; for inhibition at 25 µM: 25 μM test compound
# T1 construct: purchased Molecular Innovations, Royal Oak, Mich
# T1 sequence (P05121 24-402): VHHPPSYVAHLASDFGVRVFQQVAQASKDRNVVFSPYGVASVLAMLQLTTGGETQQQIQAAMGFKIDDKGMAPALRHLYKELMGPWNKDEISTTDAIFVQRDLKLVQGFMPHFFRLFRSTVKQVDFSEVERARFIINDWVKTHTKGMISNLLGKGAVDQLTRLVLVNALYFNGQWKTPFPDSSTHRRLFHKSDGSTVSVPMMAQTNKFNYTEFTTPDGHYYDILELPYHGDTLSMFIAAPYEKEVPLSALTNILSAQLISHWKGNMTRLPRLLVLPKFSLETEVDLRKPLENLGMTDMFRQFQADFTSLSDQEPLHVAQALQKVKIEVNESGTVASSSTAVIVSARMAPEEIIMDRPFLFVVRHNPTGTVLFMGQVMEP
# Method: Test compounds are dissolved in DMSO at a final concentration of 10 mM, then diluted 100× in physiologic buffer. The inhibitory assay is initiated by the addition of the test compound (1-100 μM final concentration, maximum DMSO concentration of 0.2%) in a pH 6.6 buffer containing 140 nM recombinant human plasminogen activator inhibitor-1 (PAI-1; Molecular Innovations, Royal Oak, Mich.). Following a 1 hour incubation at room temperature, 70 nM of recombinant human tissue plasminogen activator (tPA) is added, and the combination of the test compound, PAI-1 and tPA is incubated for an additional 30 minutes. Following the second incubation, Spectrozyme-tPA (American Diagnostica, Greenwich, Conn.), a chromogenic substrate for tPA, is added and absorbance read at 405 nm at 0 and 60 minutes. Relative PAI-1 inhibition is equal to the residual tPA activity in the presence of the test compound and PAI-1. Control treatments include the complete inhibition of tPA by PAI-1 at the molar ratio employed (2:1), and the absence of any effect of the test compound on tPA alone.
# [2] = molecular target: human PAI-1 (Homo sapiens, UniProt P05121); assay: Assay for determining IC50 of inhibition of PAI-1 (active PAI-1 bound to tPA-coated plate); assay type: binding; settings: pH 7.5 buffer
# Sequence of human PAI-1 (P05121 24-402): as above
# Method: This assay is based upon the non-SDS dissociable interaction between tPA and active PAI-1. Assay plates are initially coated with human tPA (10 μg/ml). Test compounds of the present invention are dissolved in DMSO at 10 mM, then diluted with physiologic buffer (pH 7.5) to a final concentration of 1-50 μM. Test compounds are incubated with human PAI-1 (50 ng/ml) for 15 minutes at room temperature. The tPA-coated plate is washed with a solution of 0.05% Tween 20 and 0.1% BSA, then the plate is blocked with a solution of 3% BSA. An aliquot of the subtituted indole/PAI-1 solution is then added to the tPA-coated plate, incubated at room temperature for 1 hour, and washed. Active PAI-1 bound to the plate is assessed by adding an aliquot of a 1:1000 dilution of the 33B8 monoclonal antibody against human PAI-1, and incubating the plate at room temperature for 1 hour (Molecular Innovations, Royal Oak, Mich.). […] The plate is incubated 45 minutes at room temperature, and color development is determined at OD405nm. The quantitation of active PAI-1 bound to tPA at varying concentrations of the test compound is used to determine the IC50. Results are analyzed using a logarithmic best-fit equation. The assay sensitivity is 5 ng/ml of human PAI-1 as determined from a standard curve ranging from 0-100 ng/ml.
Compound,inhibition at 10 µM [1] [%],inhibition at 25 µM [1] [%],IC50 [2] [µM]
"Cc1cccc(Nc2ccc3c(c2)c(-c2ccccc2)c(C(=O)O)n3Cc2ccccc2)c1 [Compound 1, 1-benzyl-5-[(3-methylphenyl)amino]-3-phenyl-1H-indole-2-carboxylic acid]",24,69,
"CC(C)(C)c1ccc(Nc2ccc3c(c2)c(-c2ccccc2)c(C(=O)O)n3Cc2ccccc2)cc1 [Compound 2, 1-benzyl-5-[(4-tert-butylphenyl)amino]-3-phenyl-1H-indole-2-carboxylic acid]",45,73,
"O=C(O)c1c(-c2ccccc2)c2cc(Nc3ccc(-c4ccccc4)cc3)ccc2n1Cc1ccccc1 [Compound 3, 1-benzyl-5-(1,1′-biphenyl-4-ylamino)-3-phenyl-1H-indole-2-carboxylic acid]",36,71,
"O=C(O)c1c(-c2ccccc2)c2cc(Nc3cccc4c3sc3ccccc34)ccc2n1Cc1ccccc1 [Compound 4, 1-benzyl-5-(dibenzo[b,d]thien-4-ylamino)-3-phenyl-1H-indole-2-carboxylic acid]",39,66,
"CC(C)(C)c1ccc(Nc2ccc3c(c2)c(-c2ccccc2)c(C(=O)O)n3Cc2ccc(-c3ccccc3)cc2)cc1 [Compound 5, 1-(1,1′-biphenyl-4-ylmethyl)-5-[(4-tert-butylphenyl)amino]-3-phenyl-1H-indole-2-carboxylic acid]",52,80,12
